From patent US4374245A, “8-[3-(6-Fluoro-1,2-benzisoxazol-3-yl)propyl]- 1-phenyl-1,3,8-triazaspiro[4.5]decan-4-one” (Hoechst-Roussel Pharmaceuticals Inc., priority 1982, dated 1983)
Read-outs that look alike come from different tables or passages of the source.

Assays:
[1] = system: apomorphine-induced climbing; assay: climbing mice assay (apomorphine-induced climbing, antipsychotic activity); format: in vivo, CK-1 male mice; conditions: Mus musculus, ip, read-out: Antipsychotic Activity ED50
[2] = system: phenyl-para-quinone induced writhes; assay: animal or person; format: in vivo, mice; conditions: Mus musculus, sc, read-out: Analgesic Activity (ED50)

SMILES	ED50 [2] [mg/kg]	also measured
O=C(CCCN1CCC(O)(c2ccc(Cl)cc2)CC1)c1ccc(F)cc1 [haloperidol]	–	ED50 [1]: 0.11 mg/kg
CC(C)=CCN1CCC2(C)c3cc(O)ccc3CC1C2C (stereo not shown) [pentazocin]	1.3	–
CCC(=O)O[C@](Cc1ccccc1)(c1ccccc1)[C@H](C)CN(C)C [propoxyphene]	3.9	–
CCN1CCCC1CNC(=O)c1cc(S(N)(=O)=O)ccc1OC (stereo not shown) [sulpiride]	–	ED50 ([1]; mice, intraperitoneal, 30 minutes prior to apomorphine 1.5 mg/kg subcutaneously, climbing scored at 10, 20 and 30 minutes, linear regression): 4.5 mg/kg
